In patent US20150141460A1, “Anti-inflammatory Compositions” (Cambridge Enterprise Limited, priority 2007, published 2015):
Read-outs that look alike come from different tables or passages of the source.

Assays:
[1] = tested on: MCP-1 induced migration of THP-1 cells; assay: ChemoTx transwell migration assay, MCP-1 induced migration of THP-1 cells; format: cell-based; settings: Homo sapiens
Procedure: FIGS. 6A-6F show representative dose response curves for the inhibition of chemokine-induced leukocyte migration in vitro, for each of the five compounds (I′) to (V) in the ChemoTx™ transwell migration assay. In each experiment, THP-1 cells were induced to migrate using a maximally effective dose of the chemokine MCP-1 in the presence or absence of various doses (from 10 pM to 1 μM) of each compound. An appropriate vehicle control was used in each experiment. The percentage inhibition of MCP-1 induced migration (calculated as the number of cells migrated in the presence of MCP-1 minus the number of cells migrated with MCP-1 omitted from the lower chamber) at each concentration of each test compound is shown as the mean of triplicate determinations, with whiskers representing SEM. The ED50 was estimated by linear interpolation of the presented graphs. The Y-axis of each graph represents the percentage inhibition of MCP-1 induced migration; the X-axis represents the concentration of test compound present in units of nM (0.01-1000).
(§1) In principle, this assay consists of two chambers separated by a porous membrane. The chemoattractant is placed in the lower compartment and the cells are placed in the upper compartment. After incubation for a period at 37° C. the cells move towards the chemoattractant, and the number of cells in the lower compartment is proportional to the chemoattractant activity (relative to a series of controls).
The THP-1 cell line (European Cell Culture Collection) were used as the leukocyte cell population.
First, the cell suspension to be placed in the upper compartment is prepared. The THP-1 cells are pelleted by centrifugation (770×g; 4 mins) and washed with Geys Balanced Salt Solution with 1 mg/ml BSA (GBSS+BSA). This wash is then repeated, and the cells repelleted before being resuspended in a small volume of GBSS+BSA for counting, for example using a standard haemocytometer.
The volume of GBSS+BSA is then adjusted depending on the number of cells present so that the cells are at final density of 4.45×10^6 cells per ml of GBSS+BSA. This ensures that there are […] THP-1 cells in each 25 μl of the solution that will be placed in the upper chamber of the plate.
To test a single compound for its ability to inhibit chemokine induced migration, it is necessary to prepare two lots of cells. The suspension of THP-1 cells at 4.45×10^6 cells/ml is divided into two pots. To one pot the inhibitor under test is added at an appropriate final concentration, in an appropriate vehicle (for example at 1 μM in not more than 1% DMSO). To the second pot an equal volume of GBSS+BSA plus vehicle as appropriate (e.g. not more than 1% DMSO) is added to act as a control.
Next, the chemoattractant solution to be placed in the lower compartment is prepared. […]

[2] = tested on: RANTES induced migration of THP-1 cells; assay: ChemoTx transwell migration assay, RANTES induced migration of THP-1 cells; format: cell-based; settings: Homo sapiens; THP-1 cell line; maximal dose of chemoattractant; read-out: ED50 RANTES induced migration
Procedure: as §1
Next, the chemoattractant solution to be placed in the lower compartment is prepared. For example, MCP-1 is diluted in GBSS+BSA to give a final concentration of 25 ng/ml. This is divided into two pots, as for the cell suspension. To one pot, the test compound is added to the same final concentration as was added to the cell suspension, while to the other pot an equal volume of GBSS+BSA plus vehicle as appropriate (e.g., not more than 1% DMSO) is added. Alternatively, other chemokines may be used (SDF-1α at 7.5 ng/ml; RANTES at 50 ng/ml; IL-8 at 10 ng/ml using neutrophils as the target cell population). […]
The impact of the test substance is calculated by comparing the chemoattractant-induced migration which occurred in the presence or absence of various concentrations of the test substance. Typically, the inhibition of migration is expressed as a percentage of the total chemoattractant-induced migration which was blocked by the presence of the compound. […]

[3] = THP-1 cell line, maximal dose of chemoattractant, Table 6, read-out: ED50 MCP-1 induced migration
[4] = THP-1 cells, Table 5, read-out: Functional ED50 versus MCP-1

SMILES | EC50 [1, 3] | EC50 [1, 4] | EC50 [2]
CC(C)(C)C(=O)N[C@H]1CCCNC1=O [Compound (I′), (S)-3-(2′,2′-dimethylpropanoylamino)-tetrahydropyridin-2-one] | 0.05 nM | 0.05 nM | 0.08 nM
O=C1NCCCC[C@@H]1NC(=O)C12CC3CC(CC(O)(C3)C1)C2 [Compound (V), 3-(3′-hydroxyadamantyl-1-carbonylamino)-caprolactam] | 0.12 nM | 0.12 nM | 0.25 nM
